# Results published in US9796714B2, “Calcium channel agonists” (University of Pittsburgh—Of the Commonwealth System of …, priority 2013, dated 2017).
# Legend:
# [1] = molecular target: T1, N-type Ca^2+ channel (Cav2.2) (Rattus norvegicus, UniProt Q02294); assay: N-type Ca2+ channel agonist activity, whole-cell perforated patch clamp of tail currents in tsA201 cells; type: cell-based; settings: for EC50: whole cell perforated patch clamp, deactivation (tail) currents from N-type channels, read-out: N-Type Ca^2+ Channel Activity EC50 +/− SEM
# T1 construct: expressed in transfected cells; later also transient transfection
# T1 sequence (Q02294 whole entry): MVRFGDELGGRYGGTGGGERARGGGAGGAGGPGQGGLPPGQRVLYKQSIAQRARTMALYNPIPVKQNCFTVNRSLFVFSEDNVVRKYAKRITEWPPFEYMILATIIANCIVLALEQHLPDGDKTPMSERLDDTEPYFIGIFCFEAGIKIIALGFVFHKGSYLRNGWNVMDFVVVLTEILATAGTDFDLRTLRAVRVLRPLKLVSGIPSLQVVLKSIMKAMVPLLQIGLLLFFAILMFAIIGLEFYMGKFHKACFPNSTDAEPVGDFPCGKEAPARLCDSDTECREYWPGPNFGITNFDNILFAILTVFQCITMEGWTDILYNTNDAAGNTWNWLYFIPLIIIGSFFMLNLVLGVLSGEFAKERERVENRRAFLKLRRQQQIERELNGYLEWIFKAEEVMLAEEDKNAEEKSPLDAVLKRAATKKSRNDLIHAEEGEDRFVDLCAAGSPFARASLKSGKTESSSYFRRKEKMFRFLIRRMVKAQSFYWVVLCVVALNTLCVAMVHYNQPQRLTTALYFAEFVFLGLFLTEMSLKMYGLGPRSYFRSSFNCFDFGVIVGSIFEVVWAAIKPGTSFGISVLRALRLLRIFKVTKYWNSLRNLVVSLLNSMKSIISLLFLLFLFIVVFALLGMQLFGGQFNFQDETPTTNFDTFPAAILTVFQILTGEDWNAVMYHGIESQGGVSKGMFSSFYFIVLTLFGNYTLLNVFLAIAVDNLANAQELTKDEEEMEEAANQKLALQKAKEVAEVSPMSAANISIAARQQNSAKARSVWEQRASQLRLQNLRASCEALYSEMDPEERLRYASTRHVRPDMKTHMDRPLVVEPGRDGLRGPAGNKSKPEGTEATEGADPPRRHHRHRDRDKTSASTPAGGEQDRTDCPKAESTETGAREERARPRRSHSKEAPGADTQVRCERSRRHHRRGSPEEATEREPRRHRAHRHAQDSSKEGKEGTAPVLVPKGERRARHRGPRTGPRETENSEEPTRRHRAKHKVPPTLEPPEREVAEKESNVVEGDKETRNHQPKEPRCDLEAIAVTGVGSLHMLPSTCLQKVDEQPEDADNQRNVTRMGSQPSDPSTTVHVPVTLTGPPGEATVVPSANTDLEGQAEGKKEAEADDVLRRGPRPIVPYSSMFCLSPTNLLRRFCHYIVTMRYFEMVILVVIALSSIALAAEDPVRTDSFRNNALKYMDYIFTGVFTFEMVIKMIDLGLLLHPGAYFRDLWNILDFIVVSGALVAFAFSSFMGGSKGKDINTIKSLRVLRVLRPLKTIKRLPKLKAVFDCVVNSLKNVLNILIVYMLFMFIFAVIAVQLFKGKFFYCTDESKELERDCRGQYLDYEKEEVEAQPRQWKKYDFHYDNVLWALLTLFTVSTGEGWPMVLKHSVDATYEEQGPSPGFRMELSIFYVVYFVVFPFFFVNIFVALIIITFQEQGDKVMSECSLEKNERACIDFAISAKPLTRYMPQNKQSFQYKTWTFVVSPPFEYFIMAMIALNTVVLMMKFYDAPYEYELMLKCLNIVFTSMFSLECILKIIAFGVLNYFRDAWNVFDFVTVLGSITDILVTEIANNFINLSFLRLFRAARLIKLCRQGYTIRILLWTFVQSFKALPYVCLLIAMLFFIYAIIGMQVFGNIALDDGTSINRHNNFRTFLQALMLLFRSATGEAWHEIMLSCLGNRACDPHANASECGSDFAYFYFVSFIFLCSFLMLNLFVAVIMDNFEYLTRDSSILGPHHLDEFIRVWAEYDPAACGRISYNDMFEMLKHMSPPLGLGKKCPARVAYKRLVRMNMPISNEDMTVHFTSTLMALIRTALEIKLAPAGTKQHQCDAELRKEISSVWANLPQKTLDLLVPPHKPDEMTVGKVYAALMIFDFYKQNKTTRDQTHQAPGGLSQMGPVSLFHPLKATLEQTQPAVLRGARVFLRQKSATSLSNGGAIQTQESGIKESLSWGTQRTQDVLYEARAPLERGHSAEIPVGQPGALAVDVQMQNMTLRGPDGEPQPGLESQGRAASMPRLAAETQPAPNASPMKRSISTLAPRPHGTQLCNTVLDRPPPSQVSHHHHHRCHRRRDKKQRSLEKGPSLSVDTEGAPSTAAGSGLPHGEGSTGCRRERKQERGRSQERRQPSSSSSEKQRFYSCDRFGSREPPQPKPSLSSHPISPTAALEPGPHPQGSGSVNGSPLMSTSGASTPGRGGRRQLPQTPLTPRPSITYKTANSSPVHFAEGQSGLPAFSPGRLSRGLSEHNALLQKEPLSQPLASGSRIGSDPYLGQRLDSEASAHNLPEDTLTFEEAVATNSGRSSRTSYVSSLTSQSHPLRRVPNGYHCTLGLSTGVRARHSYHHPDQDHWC
# Description: tsA201 cells expressing calcium channels. […] For subsequent evaluation of effects on N-, P/Q-, or L-type channels, tsA-201 cells were transiently transfected with Cav2.2, Cav2.1, or Cav1.3, in combination with Cavβ3 and […] (Addgene, Cambridge Mass.) using FuGENE 6 (Life Technologies, Grand Island, N.Y.). All cells were maintained in DMEM supplemented with 10% fetal bovine serum. For the stable cell line expressing N-type channels, 25 μg/mL zeocin, 5 μg/mL blasticidin, and 25 μg/mL hygromycin were added as selection agents.
# Whole-cell patch clamp recordings of calcium current. […] Briefly, the pipette solution consisted of […] Cs2SO4, 60 mM CsCl, 1 mM MgCl2, 10 mM 4-(2-hydroxyethyl)-1-piperazineethanesulfonic acid (HEPES) at pH 7.4. […] Patch pipettes were fabricated from borosilicate glass and pulled to a resistance of about 1 MΩ. Before each experiment, a stock solution consisting of 3 mg amphotericin-B dissolved into 50 μL anhydrous DMSO was made. […] Capacitive currents and passive membrane responses to voltage commands were subtracted from the data. Currents were amplified by an Axopatch 200B amplifier, filtered at 5 KHz, and digitized at 10 KHz for subsequent analysis using pClamp software (Axon Instruments/Molecular Devices; Sunnyvale, Calif.). […] To measure effects on calcium channel tail currents, the tail current integral was measured before and after application of a derivative, with the integral of each trace being normalized to its peak. All experiments were carried out at room temperature (22° C.). […] All other salts and chemicals were obtained from Sigma-Aldrich chemical company (St. Louis, Mo.).
# Statistical Analysis. Statistical analysis was performed using either GraphPad Prism 5 (GraphPad Software, Inc.) or Origin 7 (OriginLab) software. For the dose-response analyses on Ca^2+ current, each concentration of the four different compounds was tested in 3-6 cells. […] All EC50 and IC50 values and their respective errors were determined by performing 100 iterations of a logistic function curve fit. Data are presented as mean±s.e.m. unless otherwise noted.
# [2] = tested on: LEMS passive transfer mouse NMJs; assay: Intracellular recordings at LEMS passive transfer mouse NMJs, ex vivo ETA nerve-muscle preparation (Example 3); settings: 50 μM, mean±SD, aBC2 LEMS passive transfer NMJs
# Description: LEMS passive transfer. To test GV-58 in a LEMS model NMJ, an established LEMS passive transfer mouse model was utilized. To perform the passive transfer of LEMS, mice were injected with the serum of patients diagnosed with LEMS. […] Each serum sample was tested for the presence of voltage-gated Ca^2+ channel antibodies using a Ca^2+ channel antibody radioimmune assay (Kronus RIA kit, Star, Id.). Control serum was obtained from the University of Pittsburgh Medical Center blood bank. […]; 25-32 g; Charles River Laboratories) were divided into two groups: one group that received LEMS serum, and a control group that received control serum.
# Intracellular recordings at mouse NMJs. […] A thin upper arm muscle, the epitrochleoanconeus (ETA), was chosen for these recordings. […] […]. A train of 10 EPPs was also collected in each muscle fiber using an inter-stimulus interval of 20 msec. To analyze the data, both the amplitudes and the areas under the waveforms (integral) were determined after correcting each digitized point in each trace for non-linear summation. Data were collected and analyzed using an Axoclamp 900A and the pClamp 10 suite of programs (Molecular Devices, Sunnyvale, Calif.).
# Statistical Analysis. […] For the dose-response analyses on Ca^2+ current, each concentration of the four different compounds was tested in 3-6 cells. […]. All EC50 and IC50 values and their respective errors were determined by performing 100 iterations of a logistic function curve fit.
# [3] = cited from earlier work
# [4] = tested on: LEMS model NMJs; assay: Intracellular recordings at LEMS model mouse NMJs, 13x, DAP and combination (Example 4); settings: 50 μM 13x, […] DAP, or both
# Description: To test this, intracellular microelectrode recordings were performed on ex vivo nerve-muscle preparations taken from LEMS passive-transfer model mice and measured the magnitude of acetylcholine released at the neuromuscular junction. The most sensitive method of quantifying the magnitude of acetylcholine released is to determine the quantal content. Quantal content is defined as the number of neurotransmitter-containing synaptic vesicles that are released from the nerve terminal during a single action potential stimulus. This value was determined by first measuring the area under the average action potential-evoked endplate potential (EPP) and then dividing this value by the area under the average single vesicle release event (miniature endplate potential; mEPP). This value could be compared between experimental groups to provide an accurate measurement of changes in the magnitude of acetylcholine released during a single action potential. Using this approach, the quantal content among five experimental conditions was compared: control NMJs, LEMS NMJs, LEMS NMJs exposed to 50 μM 13x, LEMS NMJs exposed to 1.5 μM DAP, and LEMS NMJs exposed to 50 μM 13x+1.5 μM DAP (FIG. 10). […]; EPP amplitude=10.18±0.62 mV) as compared with control serum treated mouse NMJs (QC=107.5±3.6; EPP amplitude=34.62±1.37 mV; Tarr et al., 2013). […] In fact, this 13x-mediated enhancement was very similar to what was observed after exposure of LEMS model NMJs to 1.5 μM DAP (QC=49.0±4.4; EPP amplitude=17.94±1.381 mV). […]; EPP amplitude=34.62±1.37 mV; Tarr et al., 2013). […] In summary, while either 13x or DAP alone caused about an 80% increase in transmitter release from LEMS model NMJs, the combination of 13x plus DAP caused about a 300% increase in transmitter release.
# [5] = oral administration to patients
Structure (SMILES),EC50 [1],also measured
"CC[C@H](CO)Nc1nc(NCc2cccc(C(F)(F)F)c2)c2ncn(C(C)C)c2n1 [Compound 13v, (R)-2-(9-Isopropyl-6-(3-(trifluoromethyl)benzylamino)-9H-purin-2-ylamino)butan-1-ol]",> 100 µM,–
"CCCn1cnc2c(NCc3ccc(-c4ccccc4)cc3)nc(N[C@H](CC)CO)nc21 [Compound 13a, (R)-2-(6-(Biphenyl-4-ylmethylamino)-9-propyl-9H-purin-2-ylamino)butan-1-ol]",> 100 µM,–
"CCCn1cnc2c(NCc3ccc(C(F)(F)F)cc3)nc(N[C@H](CC)CO)nc21 [Compound 13o, (R)-2-(9-Propyl-6-(4-(trifluoromethyl)benzylamino)-9H-purin-2-ylamino)butan-1-ol]",> 100 µM,–
"CC[C@H](CO)Nc1nc(NC(c2ccccc2)c2ccccc2)c2ncn(C(C)C)c2n1 [Compound 13t, (R)-2-(6-(Benzhydrylamino)-9-isopropyl-9H-purin-2-ylamino)butan-1-ol]",> 100 µM,–
"CC[C@H](CO)Nc1nc(NCCc2ccccc2)c2ncn(C(C)C)c2n1 [Compound 13q, (R)-2-(9-Isopropyl-6-(phenethylamino)-9H-purin-2-ylamino)butan-1-ol]",> 100 µM,–
"CC[C@H](CO)Nc1nc(Nc2ccccc2)c2ncn(C)c2n1 [Compound 13l, (R)-2-(9-Methyl-6-(phenylamino)-9H-purin-2-ylamino)butan-1-ol]",> 100 µM,–
"CCCn1cnc2c(NCc3cccnc3)nc(N[C@H](CC)CO)nc21 [Compound 13f, (R)-2-(9-Propyl-6-(pyridin-3-ylmethylamino)-9H-purin-2-ylamino)butan-1-ol]",> 100 µM,–
"CC[C@H](CO)Nc1nc(NCC2CC2)c2ncn(C(C)C)c2n1 [Compound 13p, (R)-2-(6-(Cyclopropylmethylamino)-9-isopropyl-9H-purin-2-ylamino)butan-1-ol]",> 100 µM,–
"CCCn1cnc2c(NCC3CC3)nc(N[C@H](CC)CO)nc21 [Compound 13g, (R)-2-(6-(Cyclopropylmethylamino)-9-propyl-9H-purin-2-ylamino)butan-1-ol]",> 100 µM,agonist effect on the Ca^2+ channel tail currents (in words) ([1]; N-type): complete loss of N-type Ca^2+ channel activity
"Cn1cnc2c(NCc3ccccc3)nc(NCCO)nc21 [olomoucine, reference compound]",–,"quantal content (EPP peak amplitude divided by mEPP peak amplitude) [2]: 33.4±11.3; quantal content determined from the area (integral) under EPP and mEPP waveforms [2]: 34.6±11.2; quantal content (EPP peak amplitude divided by mEPP peak amplitude) ([2]; listed as oloumucine): slightly, but significantly smaller; quantal content determined from the area (integral) under EPP and mEPP waveforms ([2]; listed as oloumucine): not significantly different"
"CC[C@H](CO)Nc1nc(NCCc2ccccc2)c2ncn(C)c2n1 [Compound 13j, (R)-2-(9-Methyl-6-(phenethylamino)-9H-purin-2-ylamino)butan-1-ol]",> 100 µM,–
"CCCn1cnc2c(NCc3ccccc3)nc(N[C@H](CC)CO)nc21 [Compound 13d, (R)-2-(6-(Benzylamino)-9-propyl-9H-purin-2-ylamino)butan-1-ol]",14.2 µM,increased Ca^2+ channel agonism vs. (R)-roscovitine ([1]; N-type): ca. 2 fold
"CC[C@H](CO)Nc1nc(NCc2ccc(-c3ccccc3)cc2)c2ncn(C)c2n1 [Compound 13h, (R)-2-(6-(Biphenyl-4-ylmethylamino)-9-methyl-9H-purin-2-ylamino)butan-1-ol]",> 100 µM,–
"Nc1ccncc1N [DAP, 3,4-diaminopyridine, reference compound]",–,"serum levels ([3]; clinical trials, 10-20 mg 3 times per day): about 0.5 μM; peak serum levels [3, 5]: 70 to 150 ng/mL; peak serum levels, corresponding concentration [3, 5]: 0.5 to 1.5 µM; 10th EPP of 50 Hz train as % of the first EPP (short-term plasticity) [4]: ~132%; increase in transmitter release from LEMS model NMJs [4]: ~80%; EPP amplitude ([4]; LEMS model NMJs): 17.94±1.381 mV; quantal content (QC, area of EPP divided by area of mEPP) ([4]; LEMS model NMJs, mean±s.e.m.): 49.0±4.4"
"CCCn1cnc2c(NCCc3ccccc3)nc(N[C@H](CC)CO)nc21 [Compound 13c, (R)-2-(6-(Phenethylamino)-9-propyl-9H-purin-2-ylamino)butan-1-ol]",> 100 µM,–
"CCCn1cnc2c(Nc3ccccc3)nc(N[C@H](CC)CO)nc21 [Compound 13e, (R)-2-(6-(Phenylamino)-9-propyl-9H-purin-2-ylamino)butan-1-ol]",> 100 µM,–
"CC[C@H](CO)Nc1nc(NCC2CC2)c2ncn(C)c2n1 [Compound 13m, (R)-2-(6-(Cyclopropylmethylamino)-9-methyl-9H-purin-2-ylamino)butan-1-ol]",> 100 µM,–
"CC[C@H](CO)Nc1nc(NCc2ccc(-c3ccccc3)cc2)c2ncn(C(C)C)c2n1 [Compound 13s, (R)-2-(6-(Biphenyl-4-ylmethylamino)-9-isopropyl-9H-purin-2-ylamino)butan-1-ol]",> 100 µM,–
"CC[C@H](CO)Nc1nc(NCc2cccnc2)c2ncn(C(C)C)c2n1 [Compound 13r, (R)-2-(9-Isopropyl-6-(pyridin-3-ylmethylamino)-9H-purin-2-ylamino)butan-1-ol]",> 100 µM,–
"CC[C@H](CO)Nc1nc(NCc2cccnc2)c2ncn(C)c2n1 [Compound 13n, (R)-2-(9-Methyl-6-(pyridin-3-ylmethylamino)-9H-purin-2-ylamino)butan-1-ol]",> 100 µM,–
